Test results as given in PubChem BioAssay (NCI).
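Abbreviation: GI50, concentration required for 50% inhibition of growth. At the TGI there is no net growth.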

How the values were obtained:
Assay in all cases: NCI-60 cell line screen, 384-well format
OVCAR-4 ovarian = test system: OVCAR-4 ovarian
HCT-116 colon = test system: HCT-116 colon
UACC-62 melanoma = test system: UACC-62 melanoma
NCI-H460 NSCLC = test system: NCI-H460 NSCLC
MOLT-4 leukemia = test system: MOLT-4 leukemia
BT-549 breast = test system: BT-549 breast
A498 renal = test system: A498 renal
HCC-2998 colon = test system: HCC-2998 colon
HT29 colon = test system: HT29 colon
SF-268 CNS = test system: SF-268 CNS
786-0 renal = test system: 786-0 renal
MDA-MB-231 breast = test system: MDA-MB-231 breast
SK-OV-3 ovarian = test system: SK-OV-3 ovarian
PC-3 prostate = test system: PC-3 prostate
SF-295 CNS = test system: SF-295 CNS
NCI/ADR-RES ovarian = test system: NCI/ADR-RES ovarian
MDA-MB-435 melanoma = test system: MDA-MB-435 melanoma
HCT-15 colon = test system: HCT-15 colon
HOP-92 NSCLC = test system: HOP-92 NSCLC
OVCAR-5 ovarian = test system: OVCAR-5 ovarian
CCRF-CEM leukemia = test system: CCRF-CEM leukemia
UACC-257 melanoma = test system: UACC-257 melanoma
SNB-19 CNS = test system: SNB-19 CNS
NCI-H322M lung = test system: NCI-H322M lung
COLO 205 colon = test system: COLO 205 colon
SK-MEL-5 melanoma = test system: SK-MEL-5 melanoma
SF-539 CNS = test system: SF-539 CNS
NCI-H522 lung = test system: NCI-H522 lung
EKVX NSCLC = test system: EKVX NSCLC
U251 glioblastoma = test system: U251 glioblastoma
HOP-62 NSCLC = test system: HOP-62 NSCLC
MDA-MB-468 breast = test system: MDA-MB-468 breast
UO-31 renal = test system: UO-31 renal
OVCAR-8 ovarian = test system: OVCAR-8 ovarian
NCI-H226 lung = test system: NCI-H226 lung
DU-145 prostate = test system: DU-145 prostate
TK-10 renal = test system: TK-10 renal
RPMI-8226 leukemia = test system: RPMI-8226 leukemia
LOX IMVI melanoma = test system: LOX IMVI melanoma
IGROV1 ovarian = test system: IGROV1 ovarian
CAKI-1 renal = test system: CAKI-1 renal
MCF7 breast = test system: MCF7 breast
SN12C renal = test system: SN12C renal
OVCAR-3 ovarian = test system: OVCAR-3 ovarian
A549 NSCLC = test system: A549 NSCLC
HL-60(TB) leukemia = test system: HL-60(TB) leukemia
HS 578T breast = test system: HS 578T breast
KM12 colon = test system: KM12 colon
ACHN renal = test system: ACHN renal
RXF 393 renal = test system: RXF 393 renal
T-47D breast = test system: T-47D breast
SW-620 colon = test system: SW-620 colon
NCI-H23 lung = test system: NCI-H23 lung
K-562 leukemia = test system: K-562 leukemia
SNB-75 CNS = test system: SNB-75 CNS
MALME-3M melanoma = test system: MALME-3M melanoma
SK-MEL-28 melanoma = test system: SK-MEL-28 melanoma
M14 melanoma = test system: M14 melanoma

How did the GI50 (OVCAR-4 ovarian) turn out when COc1c(Nc2ncc(Cl)c(N[C@@H]3[C@H]4C=CC(C4)[C@@H]3C(N)=O)n2)ccc2c1CC[C@@H](N1CCOCC1)CC2 was run?
Its GI50 is 7.05 µM.

What about the TGI (OVCAR-4 ovarian) of the same molecule?
Its TGI is 19.6 µM.

What about the GI50 (HCT-116 colon) of the same molecule?
Its GI50 is 1.27 µM.

What about the TGI (HCT-116 colon) of the same molecule?
The TGI was 2.62 µM.

What about the GI50 (UACC-62 melanoma) of the same molecule?
The GI50 was 0.688 µM.

And the TGI (UACC-62 melanoma)?
The TGI was 2.92 µM.

And the GI50 (NCI-H460 NSCLC)?
Its GI50 is 1.96 µM.

What about the TGI (NCI-H460 NSCLC) of the same molecule?
Its TGI is 5.26 µM.

And the GI50 (MOLT-4 leukemia)?
The GI50 was 0.311 µM.

What about the TGI (MOLT-4 leukemia) of the same molecule?
The TGI was 1.43 µM.

What about the GI50 (BT-549 breast) of the same molecule?
Its GI50 is 1.62 µM.

What about the TGI (BT-549 breast) of the same molecule?
The TGI was 3.16 µM.

And the GI50 (A498 renal)?
Its GI50 is 1.95 µM.

What about the TGI (A498 renal) of the same molecule?
The TGI was 10.6 µM.

And the GI50 (HCC-2998 colon)?
Its GI50 is 1.24 µM.

And the TGI (HCC-2998 colon)?
Its TGI is 3.09 µM.

And the GI50 (HT29 colon)?
The GI50 was 1.24 µM.

What about the TGI (HT29 colon) of the same molecule?
The TGI was 2.58 µM.

What about the GI50 (SF-268 CNS) of the same molecule?
Its GI50 is 0.206 µM.

And the TGI (SF-268 CNS)?
The TGI was 2.5 µM.

What about the GI50 ([…]-0 renal) of the same molecule?
Its GI50 is 1.48 µM.

And the TGI (786-0 renal)?
The TGI was 2.94 µM.

What about the GI50 (MDA-MB-231 breast) of the same molecule?
The GI50 was 1.54 µM.

What about the TGI (MDA-MB-231 breast) of the same molecule?
The TGI was 6.14 µM.

What about the GI50 (SK-OV-3 ovarian) of the same molecule?
The GI50 was 1.78 µM.

And the TGI (SK-OV-3 ovarian)?
Its TGI is 7.55 µM.

And the GI50 (PC-3 prostate)?
Its GI50 is 2.27 µM.

And the TGI (PC-3 prostate)?
The TGI was 8.98 µM.

And the GI50 (SF-295 CNS)?
The GI50 was 1.95 µM.

And the TGI (SF-295 CNS)?
The TGI was 10.3 µM.

What about the GI50 (NCI/ADR-RES ovarian) of the same molecule?
The GI50 was 1.97 µM.

And the TGI (NCI/ADR-RES ovarian)?
Its TGI is 4.66 µM.

What about the GI50 (MDA-MB-435 melanoma) of the same molecule?
The GI50 was 1.7 µM.

What about the TGI (MDA-MB-435 melanoma) of the same molecule?
The TGI was 8.33 µM.

And the GI50 (HCT-15 colon)?
The GI50 was 2.15 µM.

And the TGI (HCT-15 colon)?
The TGI was 10.1 µM.

What about the GI50 (HOP-92 NSCLC) of the same molecule?
Its GI50 is 1.3 µM.

And the TGI (HOP-92 NSCLC)?
Its TGI is 3.26 µM.

What about the GI50 (OVCAR-5 ovarian) of the same molecule?
The GI50 was 1.35 µM.

And the TGI (OVCAR-5 ovarian)?
Its TGI is 4.58 µM.

And the GI50 (CCRF-CEM leukemia)?
Its GI50 is 1.51 µM.

What about the TGI (CCRF-CEM leukemia) of the same molecule?
The TGI was 3.03 µM.

And the GI50 (UACC-257 melanoma)?
Its GI50 is 1.51 µM.

And the TGI (UACC-257 melanoma)?
The TGI was 3.53 µM.

What about the GI50 (SNB-19 CNS) of the same molecule?
Its GI50 is 5.1 µM.

And the TGI (SNB-19 CNS)?
The TGI was 17.4 µM.

And the GI50 (NCI-H322M lung)?
The GI50 was 2.75 µM.

What about the TGI (NCI-H322M lung) of the same molecule?
The TGI was 11.5 µM.

What about the GI50 (COLO 205 colon) of the same molecule?
Its GI50 is 1.11 µM.

And the TGI (COLO 205 colon)?
Its TGI is 2.69 µM.

What about the GI50 (SK-MEL-5 melanoma) of the same molecule?
Its GI50 is 1.37 µM.

And the TGI (SK-MEL-5 melanoma)?
The TGI was 6.79 µM.

What about the GI50 (SF-539 CNS) of the same molecule?
The GI50 was 1.25 µM.

And the TGI (SF-539 CNS)?
The TGI was 2.57 µM.

And the GI50 (NCI-H522 lung)?
Its GI50 is 1.44 µM.

And the TGI (NCI-H522 lung)?
The TGI was 3.7 µM.

What about the GI50 (EKVX NSCLC) of the same molecule?
Its GI50 is 1.5 µM.

What about the TGI (EKVX NSCLC) of the same molecule?
The TGI was 4.53 µM.

And the GI50 (U251 glioblastoma)?
Its GI50 is 1.76 µM.

What about the TGI (U251 glioblastoma) of the same molecule?
Its TGI is 6.5 µM.

What about the GI50 (HOP-62 NSCLC) of the same molecule?
The GI50 was 1.7 µM.

And the TGI (HOP-62 NSCLC)?
Its TGI is 5.36 µM.

And the GI50 (MDA-MB-468 breast)?
The GI50 was 1.28 µM.

What about the TGI (MDA-MB-468 breast) of the same molecule?
The TGI was 2.99 µM.

And the GI50 (UO-31 renal)?
The GI50 was 1.56 µM.

And the TGI (UO-31 renal)?
The TGI was 4.9 µM.

What about the GI50 (OVCAR-8 ovarian) of the same molecule?
The GI50 was 2.7 µM.

What about the TGI (OVCAR-8 ovarian) of the same molecule?
The TGI was 9.48 µM.

What about the GI50 (NCI-H226 lung) of the same molecule?
Its GI50 is 0.676 µM.

And the TGI (NCI-H226 lung)?
The TGI was 4.67 µM.

What about the GI50 (DU-145 prostate) of the same molecule?
The GI50 was 2.88 µM.

What about the TGI (DU-145 prostate) of the same molecule?
Its TGI is 12.3 µM.

And the GI50 (TK-10 renal)?
The GI50 was 2.29 µM.

And the TGI (TK-10 renal)?
Its TGI is 7.86 µM.

What about the GI50 (RPMI-8226 leukemia) of the same molecule?
Its GI50 is 1.21 µM.

And the TGI (RPMI-8226 leukemia)?
The TGI was 3 µM.

And the GI50 (LOX IMVI melanoma)?
The GI50 was 1.33 µM.

And the TGI (LOX IMVI melanoma)?
The TGI was 2.68 µM.

And the GI50 (IGROV1 ovarian)?
Its GI50 is 1.4 µM.

What about the TGI (IGROV1 ovarian) of the same molecule?
Its TGI is 9.59 µM.

What about the GI50 (CAKI-1 renal) of the same molecule?
Its GI50 is 1.35 µM.

What about the TGI (CAKI-1 renal) of the same molecule?
Its TGI is 2.78 µM.

What about the GI50 (MCF7 breast) of the same molecule?
The GI50 was 1.75 µM.

What about the TGI (MCF7 breast) of the same molecule?
Its TGI is 11.9 µM.

What about the GI50 (SN12C renal) of the same molecule?
The GI50 was 1.19 µM.

And the TGI (SN12C renal)?
The TGI was 5.33 µM.

What about the GI50 (OVCAR-3 ovarian) of the same molecule?
The GI50 was 3.11 µM.

And the TGI (OVCAR-3 ovarian)?
The TGI was 11.8 µM.

And the GI50 (A549 NSCLC)?
Its GI50 is 1.27 µM.

What about the TGI (A549 NSCLC) of the same molecule?
The TGI was 5.57 µM.

What about the GI50 (HL-60(TB) leukemia) of the same molecule?
The GI50 was 1.55 µM.

And the TGI (HL-60(TB) leukemia)?
The TGI was 3.01 µM.

And the GI50 (HS 578T breast)?
Its GI50 is 1.56 µM.

And the TGI (HS 578T breast)?
The TGI was 2.97 µM.

What about the GI50 (KM12 colon) of the same molecule?
Its GI50 is 1.68 µM.

What about the TGI (KM12 colon) of the same molecule?
The TGI was 10.4 µM.

What about the GI50 (ACHN renal) of the same molecule?
Its GI50 is 2.16 µM.

What about the TGI (ACHN renal) of the same molecule?
The TGI was 9.25 µM.

What about the GI50 (RXF 393 renal) of the same molecule?
Its GI50 is 1.58 µM.

What about the TGI (RXF 393 renal) of the same molecule?
Its TGI is 3.17 µM.

What about the GI50 (T-47D breast) of the same molecule?
Its GI50 is 1.94 µM.

What about the TGI (T-47D breast) of the same molecule?
Its TGI is 5.31 µM.

And the GI50 (SW-620 colon)?
Its GI50 is 1.66 µM.

And the TGI (SW-620 colon)?
The TGI was 3.25 µM.

What about the GI50 (NCI-H23 lung) of the same molecule?
Its GI50 is 1.68 µM.

And the TGI (NCI-H23 lung)?
The TGI was 5.94 µM.

What about the GI50 (K-562 leukemia) of the same molecule?
The GI50 was 1.78 µM.

And the TGI (K-562 leukemia)?
The TGI was 3.68 µM.

What about the GI50 (SNB-75 CNS) of the same molecule?
Its GI50 is 1.29 µM.

And the TGI (SNB-75 CNS)?
Its TGI is 2.77 µM.

And the GI50 (MALME-3M melanoma)?
Its GI50 is 0.866 µM.

What about the TGI (MALME-3M melanoma) of the same molecule?
The TGI was 2.66 µM.

And the GI50 (SK-MEL-28 melanoma)?
Its GI50 is 1.54 µM.

What about the TGI (SK-MEL-28 melanoma) of the same molecule?
The TGI was 5.22 µM.

And the GI50 (M14 melanoma)?
The GI50 was 0.817 µM.

What about the TGI (M14 melanoma) of the same molecule?
The TGI was 2.57 µM.
